Values quoted from earlier work as cited in patent US11369558B1, “Multi-component nutritional supplement formulations and treatment regimen” (priority 2018, dated 2022).

Conditions: in the human body

Share of DMSO converted to MSM: approximately 15%
Structure (SMILES): C[S+](C)[O-] [DMSO, dimethyl sulfoxide]
